A word on the IC50: it is the concentration needed to halve the response being measured. Read a high IC50 as lower potency.

For the test, the target named is sigma receptors. Put plainly: Inhibition of 3H-DTG binding to sigma receptors in rat brain in vitro. The following applies: 2 nM 3H-DTG, rat brain without cerebellum, 25° C., 20 min. The method, then: INHIBITION OF 3H-DTG BINDING TO SIGMA RECEPTORS IN RAT BRAIN IN VITRO
By this method the inhibition by drugs of the binding of 2 nM ^3 H-DTG (1,3,di-o-tolyl guanidine) to sigma receptors in homogenates or membranes from rat brain without cerebellum is determined in vitro as modified from Weber et al. Proc. Natl. Acad. Sci. 1986, 83,8784.
Homogenate: Rats (150-250 g) are decapitated and the brains (without cerebellum) quickly removed and placed on ice, weighed and homogenized in 100 vol ice-cold (0° C.) 50 mM Tris-buffer (pH 7.7) in an ethanol rinsed glass/teflon homogenizer at 0° C. and kept on ice until use.
P2-membranes: Brains are homogenized in 10 vol 0.32 M sucrose in an ethanol rinsed glass/teflon homogenizer with 10 strokes up and down. The homogenate is centrifuged for 10 min at 900×gm at 4° C. The supernatant is decanted and centrifuged for 20 min at 50,000 gm at 4° C. The resulting pellet is resuspended in 10 vol ice-cold […] Tris-buffer (pH 7.7) and incubated for 30 min. at 37° C. The membrane suspension is then centrifuged for further 20 min. at 50,000 gm at 4° C. The pellet is resuspended in 50 vol. of ice-cold Tris-buffer and used immediately.
0.5 ml 50 mM Tris-buffer (pH 7.7), 0.25 ml displacer (6×100 μM DTG, 6× [test compound], or Tris-buffer), and 0.25 ml 6×2 nM. ^3 H-DTG are mixed into 5 ml s plastic test tubes and kept at 4° C. until use. The binding reaction is initiated by mixing 0.5 ml tissue suspension into this solution and incubate at 25° C. for 20 min. Glass fiber filters (Whatman GF/B) are placed on the filter machine which is then closed tightly. Just before filtration vacuum is applied, and the filters washed with 0.1% PEI solution from a spray bottle followed by one wash with Tris-buffer.
The binding reaction is stopped by filtration of the assay mixture at reduced pressure (750 mbar) followed by further 3 washes with 5 ml ice-cold Tris-buffer. The filters are then placed in counting vials and 4 ml scintillation solution added. The vials are counted in a Beckmann scintillation counter.
50 mM Tris-buffer pH 7.7: 7.38 g Trizma--7.7 plus distilled H2 O ad 1 liter. 100 ml 10% polyethylenimine (PEI): 100 ml dest. H2 O is added to approx. 20 g 50% PEI which is solubilized by stirring and heating. Diluted (1+99) before use. 6×2 nM ^3 H-DTG: The exact volume depends on the actual concentration of the batch, but is made as close as possible to 12 nM. The containers for the radioactive solution is rinsed in 96% ethanol before use.
^3 H-DTG was obtained from NEN Research Products, Du Pont Denmark. Specific activity 62.3 Ci/mmol.
The known sigma receptor ligands BMY 14802 and rimcazole were included in the test for comparison purposes.
Turning to `Fc1ccc(C2=CC3CCC(C2)N3CCCCc2cn(-c3ccc(F)cc3)c3ccccc23)cc1` (stereo not shown) [Compound 23, 1-(4-Fluorophenyl)-3-[4-[3-(4-fluorophenyl)-8-azabicyclo[3,2,1]-oct-2-en-8-yl]-1-butyl]-indol], the half-maximal inhibitory concentration (IC50) was 2500 pM.

`c1cncc(-n2cc(CCCCN3CCC4(CC3)COCc3ccccc34)c3ccccc32)c1` [Compound 9k, 1'-[4-[1-(3-Pyridinyl)-3-indolyl]-1-butyl]spiro[1H-2-benzopyran-4(3H), 4'-piperidine]]: the half-maximal inhibitory concentration (IC50) amounted to 920 pM.

In turn, `c1ccc(CCCCN2CCC3(CC2)SCc2ccccc23)cc1` [Compound 2d, 1'-(4-Phenyl-1-butyl)spiro[benzo[c]thiophene-1(3H),4'-piperidine]] came in with an IC50 of 770 pM. The IC50 values of the last two compounds are within 1.5-fold of each other.

As to `CCCCCN1CCC2(CC1)OCc1ccccc12` [Compound 1b, 1'-Pentylspiro[isobenzofuran-1(3H),4'-piperidine]], the concentration for half-maximal inhibition (IC50) was determined as 3700 pM.

`c1ccc2c(c1)COCC21CCN(CCCCC2CNc3ccccc32)CC1` (stereo not shown) [Compound 13c, 1'-[4-(2,3-Dihydro-3-indolyl)-1-butyl]spiro[1H-2-benzopyran-4(3H) ,4'-piperidine]] displayed a 50% inhibitory concentration (IC50) of 4800 pM.

For the compound `Fc1ccc(-n2cc(CCCCN3CCC4(CC3)OCc3c(F)cccc34)c3ccccc32)cc1` [Compound 9s, 4-Fluoro-1'-[4-[1-(4-fluorophenyl)-3-indolyl]-1-butyl]spiro[isobenzofuran-1(3H),4'-piperidine]], the IC50 is 56000 pM.

As to `O=S1(=O)CC(=CCCCN2CCC3(CC2)OCc2ccccc23)c2ccccc21` [Compound 32, 1'-[4-(2. 3-Dihydro-benzo[b]thiophen-3-yliden)-1-butyl]spiro[isobenzofuran-1(3H),4'-piperidine]-S,S-dioxide], the IC50 turned out to be 890 pM. Compared with the last compound, the IC50 is about 63-fold lower.

As for `Clc1cccc(Cl)c1C1CCN(CCCCc2noc3ccccc23)CC1` [Compound 19d, 3-[4-(4-(2,6-Dichlorophenyl)-1-piperidyl)-1-butyl]-1,2-benzisoxazol], the IC50 was found to be 4400 pM.

Regarding `Fc1ccc(C2CCN(CCCOc3nsc4ccccc34)CC2)cc1` [Compound 21, 3-[3-(4-(4-Fluorophenyl)-piperidin-1-yl)-1-propyloxy]-1,2-benzisothiazole], the IC50 turned out to be 200 pM.

Take `c1ccc(CCCN2CCC3(CC2)OCc2ccccc23)cc1` [Compound 4d, 1'-(3-Phenyl-1-propyl)-spiro[isobenzofuran-1(3H),4'-piperidine]]: the IC50 worked out at 1100 pM.

`OC(CCCN1CCC2(CC1)OCc1ccccc12)c1ccccc1` (stereo not shown) [Compound 26b, 1'-(4-Phenyl-4-hydroxy-1-butyl)-spiro[isobenzofuran-1(3H),4'-piperidine]] yielded an IC50 of 1900 pM.

Consider `Cc1ccc(C2CCN(CCCCc3cn(-c4ccc(F)cc4)c4ccccc34)CC2)cc1` [Compound 9m, 1-(4-Fluorophenyl)-3-[4-(4-(4-methylphenyl)-1-piperidyl)-1-butyl]indole], for which the IC50 is 1600 pM.

Consider `c1ccc(CCCCN2CCC3(CC2)Oc2ccccc2O3)cc1` [Compound 25a, 1'-(4-Phenyl-1-butyl)-spiro[1,3-benzodioxole-2,4'-piperidine]], for which the IC50 worked out at 11000 pM.

Regarding `Fc1ccc(-n2cc(CCCCN3CCC4(CC3)OCc3ccccc34)c3cc(F)ccc32)cc1` [Compound 9b, 1'-[4-[5-Fluoro-1-(4-fluorophenyl)-3-indolyl]-1-butyl]spiro[isobenzofuran-1(3H), 4'-piperidine]], the IC50 was determined as 60 pM.

`c1ccc2c(c1)CCC2CCCCN1CCC2(CC1)OCc1ccccc12` (stereo not shown) [Compound 28, 1'-[4-(Indan-1-yl)-1-butyl]-spiro(isobenzofuran-1(3H),4'-piperidine]]: the 50% inhibitory concentration (IC50) was 150 pM.

`Fc1ccc(N2CC(CCCCN3CCC4(CC3)OCc3ccccc34)c3ccccc32)cc1` (stereo not shown) [Compound 30, 1'-(4-(2,3-Dihydro-1-(4-fluorophenyl)-3-indolyl)-1-butyl)spiro[isobenzofuran-1(3H),4'-piperidine]] gave an IC50 of 70 pM.

`Fc1ccc(-n2cc(OCCCN3CCC4(CC3)OCc3ccccc34)c3cc(Cl)ccc32)cc1` [Compound 8c]: the IC50 was 660 pM. Compared with the last compound, the IC50 is about 9.4-fold higher.

With `c1ccc2c(c1)OC1(CCN(CCCCc3c[nH]c4ccccc34)CC1)O2` [Compound 25b, 1'-[4-(3-Indolyl)-1-butyl]-spiro[1.3-benzodioxole-2,4'-piperidine]], the IC50 was determined as 36000 pM.

Compound `Fc1ccc(-n2cc(CCCCN3CCC4(CC3)COCc3ccccc34)c3ccccc32)cc1` [Compound 9a, 1'-[4-[1-(4-Fluorophenyl)-3-indolyl]-1-butyl]spiro[1H-2-benzopyran-4(3H), 4'-piperidine]] came in with an IC50 of 340 pM.

As to `Fc1ccc2c(c1)C(CCCCN1CCC3(CC1)OCc1ccccc13)CO2` (stereo not shown) [Compound 12, 1'-(4-(2,3-Dihydro-5-fluoro-benzofuran-3-yl)-1-butyl]-spiro[isobenzofuran-1(3H),4'-piperidine]], the concentration for half-maximal inhibition (IC50) was determined as 300 pM. This IC50 and that of the compound before are within 1.5-fold of each other.

Consider `c1ccc2c(c1)COC21CCN(CCCCc2csc3ccccc23)CC1` [Compound 10a, 1'-(4-(Benzo[b]thiophen-3-yl)-1-butyl)spiro[isobenzofuran-1(3H),4'-piperidine]], for which the IC50 was determined as 90 pM.

`c1ccc(CCCCN2CCC3(CC2)OCc2ccccc23)cc1` [Compound 2a, 1'-(4-Phenyl-1-butyl)spiro[isobenzofuran-1(3H),4'-piperidine]] came in with a half-inhibitory concentration (IC50) of 250 pM.

As to `c1ccc2c(c1)COC21CCN(CCCCc2c[nH]c3ccccc23)CC1` [Compound 2u, 1'-[4-(3-Indolyl)-1-butyl]-spiro[isobenzofuran-1(3H),4'-piperidine]], the IC50 turned out to be 410 pM.

Turning to `c1ccc(OCCCN2CCC3(CC2)Cc2ccccc2CO3)cc1` [Compound 2l, 1'-(3-Phenoxy-1-propyl)spiro[3H-2-benzopyran-3,4'-piperidine]], the half-maximal inhibitory concentration (IC50) is 3800 pM.

The compound `c1ccc(C2CCN(CCCCc3c[nH]c4ccccc34)CC2)cc1` [Compound 2cc, 3-[4-(4-Phenyl-1-piperidyl)-1-butyl]indole] yielded a half-maximal inhibitory concentration (IC50) of 1100 pM.

The compound `Fc1ccc(C2CCN(CCCCc3cn(-c4ccccc4)c4ccccc34)CC2)cc1` [Compound 9p, 1-Phenyl-3-[4-(4-(4-fluorophenyl)-1-piperidyl)-1-butyl]indole] had a half-maximal inhibitory concentration (IC50) of 280 pM. Against the preceding compound, the IC50 is about 3.9-fold lower.

In the case of `OC(CCCN1CCC2(CC1)OCc1ccccc12)c1ccc(F)cc1` (stereo not shown) [Compound 26a, 1'-[4-(4-Fluorophenyl)-4-hydroxy-1-butyl]-spiro[isobenzofuran-1(3H),4'-piperidine]], the half-maximal inhibitory concentration (IC50) is 890 pM.

Consider `Fc1ccc(C2CCN(CCCCc3c[nH]c4cc(Cl)c(Cl)cc34)CC2)cc1` [Compound 2ee, 5,6-Dichloro-3-[4-(4-(4-fluorophenyl)-1-piperidyl)-1-butyl]-indole], for which the half-maximal inhibitory concentration (IC50) amounted to 1000 pM.

As for `Fc1ccc(-n2nc(CCCCN3CCC4(CC3)OCc3ccccc34)c3cc(C(F)(F)F)ccc32)cc1` [Compound 17a, 1'-[4-[1-(4-Fluorophenyl)-5-trifluoromethylindazol-3-yl]-1-butyl]spiro[isobenzofuran-1(3H),4'-piperidine]], the IC50 worked out at 110 pM. This IC50 is about 9.1-fold lower than that of the compound before.

Consider `OC(CCCN1CCC2(CC1)OCc1ccccc12)C1CCCCC1` (stereo not shown) [Compound 26c, 1'-(4-Cyclohexyl-4-hydroxy-1-butyl)spiro[isobenzofuran-1(3h),4'-piperidine]], for which the IC50 is 140 pM.

As to `c1ccc2c(c1)COC21CCN(CCCCC2CCCCC2)CC1` [Compound 2b, 1'-(4-Cyclohexyl-1-butyl)spiro[isobenzofuran-1(3H), 4'-piperidine)], the IC50 worked out at 70 pM.

For `c1ccc2c(c1)COCC21CCN(CCCCc2c[nH]c3ccccc23)CC1` [Compound 2v, 1'-[4-(3-Indolyl)-1-butyl]-spiro[1H-2-benzopyran-4(3H),4'-piperidine]], the IC50 amounted to 1800 pM. Against the preceding compound, the IC50 is about 26-fold higher.

With `c1ccc2c(c1)COC21CCN(CCCCc2cn(-c3ccoc3)c3ccccc23)CC1` [Compound 5e, 1'-[4-[1-(3-Furanyl)-3-indolyl]-1-butyl]spiro[isobenzofuran-1(3H),4'-piperidine]], the IC50 was 4700 pM.

Regarding `c1ccc2c(c1)COC21CCN(CCCc2noc3ccccc23)CC1` [Compound 20, 1'-(3-(1,2-Benzisoxazol-3-yl)-1-propyl)spiro[isobenzofuran-1(3H) ,4'-piperidine]], the IC50 was found to be 630 pM.

(Values after patent US6207677A, “Piperidine derivatives having anxiolytic effect” (H. Lundbeck A/S, priority 1991, dated 2001).)
